Test results: PubChem BioAssay (NCI)
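Results reflect a 48-hour exposure of cells in 96-well plates to compound at five concentrations. TGI: total growth inhibition.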

How the values were obtained:
Test in all cases: NCI tumour cell line growth inhibition, 48 h
[1] = test system: M19-MEL melanoma
[2] = test system: DMS 114 small cell lung
[3] = test system: HOP-18 NSCLC
[4] = test system: SNB-78 CNS
[5] = test system: KM20L2 colon
[6] = test system: DMS 273 small cell lung
[7] = test system: NCI/ADR-RES ovarian
[8] = test system: MDA-MB-231 breast
[9] = test system: DU-145 prostate
[10] = test system: BT-549 breast
[11] = test system: HS 578T breast
[12] = test system: XF 498 CNS

Structure (SMILES)	TGI [1]	TGI [2]	TGI [3]	TGI [4]	TGI [5]	TGI [6]	TGI [7]	TGI [8]	TGI [9]	TGI [10]	TGI [11]	TGI [12]
C1=c2ccccc2=C2C(=C(c3ccccc3)C(c3ccccc3)=NN2c2ccccc2)S1	> 100 µM	> 100 µM	> 100 µM	> 100 µM	> 100 µM	> 100 µM						
Nc1cnc2c(c1)c(=O)nc1n2CCS1							> 100 µM	> 100 µM	> 100 µM	> 100 µM		
O=C(O)c1cc(N(Cc2ccccc2O)Cc2cc(O)ccc2O)ccc1O							> 100 µM	> 100 µM	> 100 µM	> 100 µM	> 100 µM	
O=C(O)Cc1ccc2c(c1O)C(=O)c1c(ccc(CC(=O)O)c1O)C2=O	> 100 µM	> 100 µM	> 100 µM	> 100 µM	> 100 µM	> 100 µM						> 100 µM
CCOC(=O)CCc1c(C)[nH]c2c(C)c3c([nH]c4ccc(Cl)cc43)c(C)c2c1=O							54 µM	34.2 µM	> 100 µM	40.3 µM	77.5 µM	
CCOC(=O)C1CC/C(=C(/C#N)C(=O)OC)N1 (configuration not stated)	> 100 µM	> 100 µM		> 100 µM	> 100 µM	> 100 µM						> 100 µM
Cc1cc(=O)oc2c(CNC(C(=O)O)C(C)O)c(O)ccc12 (configuration not stated)							> 100 µM	> 100 µM	> 100 µM		> 100 µM	
CCOC(=O)CCC(NC(=O)c1ccc(Oc2nc3ccccc3nc2C(=O)OCC)cc1)C(=O)OCC (configuration not stated)							> 100 µM	95.9 µM	> 100 µM	> 100 µM	> 100 µM	
CN(CC#N)C(=O)Cc1ccc([N+](=O)[O-])cc1							> 10 µM	> 10 µM	> 10 µM	> 10 µM	> 10 µM	
c1ccc2c3nnc(c2c1)SCCSCCCSCCS3							> 100 µM	86.1 µM	> 100 µM		> 100 µM	
NC(=O)C(=CN1CC(=O)NC1=S)C(N)=O							> 100 µM	> 100 µM	> 100 µM	> 100 µM		
COCC12CC(CC1=O)C1C2ON2c3ccccc3C(=O)C12c1ccccc1 (configuration not stated)		> 100 µM	> 100 µM	> 100 µM	> 100 µM	> 100 µM						> 100 µM
COc1nc2c(c(=O)n1C)NC(C(O)C(O)CO)C=N2 (configuration not stated)							> 10 µM	> 10 µM	> 10 µM	> 10 µM	> 10 µM	
O=C1C=C(Nc2ccccc2C(=O)CC(=O)C(=O)Nc2ccc(Cl)c(Cl)c2)c2ccccc2C1=O	8.96 µM	66.7 µM		> 100 µM								
COc1ccc(C2S/C(=C\c3cccc(O)c3)C(=O)N2NC(=O)Cc2ccccc2)cc1 (configuration not stated)	> 100 µM	> 100 µM	> 100 µM			> 100 µM						
FC(F)(F)C1(C(F)(F)F)C2CCC3(CC(F)(F)C(F)(F)S3)C1C2 (configuration not stated)							> 100 µM	> 100 µM	> 100 µM		> 100 µM	
